Measurements from US20200223889A1, “Bicyclic Compounds Capable of Binding to Melanocortin 4 Receptor” (Novo Nordisk A/S, priority 2017, published 2020).
Like-named read-outs stand apart in the source and are kept apart here. Starred links: 1 amine or outer side, 2 acyl side, 3 side chain; linkers in the order of their positions; H or OH if unused. Positions of bridges follow the written chain, without caps; N, C: chain ends. Non-standard residues stand in square brackets, D forms with d. Residues, ends and D or L forms follow the SMILES beside them. Lys(CH2CO2H)2 = N[C@@H](CCCCN(CC(=O)O)CC(=O)O)C(=O)O; Phe(3,4-(OMe)2) = COc1ccc(C[C@H](N)C(=O)O)cc1OC; Hyp = O=C(O)[C@@H]1C[C@@H](O)CN1; Cit = NC(=O)NCCC[C@H](N)C(=O)O; Thz = O=C(O)[C@@H]1CSCN1; CH2 = C([*:1])[*:2]

Key:
human MC4R = molecular target: T1, human MC4R (Homo sapiens, UniProt P32245); assay: Functional cAMP assay (CisBio HTRF) in BHK cells expressing human MC4R; assay type: cell-based; conditions: for MC1R/MC4R cAMP EC50 ratio: MC1R cAMP EC50 divided by MC4R cAMP EC50
T1 construct: expressed in transfected cells
Procedure, shortened: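 Stably transfected BHK cells expressing human MC1R or MC4R; cAMP quantified by HTRF (cAMP-d2/cryptate) after 30 min compound stimulation at 25 °C in DMEM-based buffer with 1 mM IBMX. Compounds were prepared as 10-fold serial dilutions starting at 2 μM (working solution, 2× final). Readout after 1 h at 25 °C; non-linear regression.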

human MC1R = molecular target: T2, human MC1R (Homo sapiens, UniProt Q01726); assay: Functional cAMP assay (CisBio HTRF) in BHK cells expressing human MC1R; assay type: cell-based
T2 construct: expressed in transfected cells
Method: In order to assess the potency of the compounds on human MC1R and human MC4R cAMP signalling was measured.
cAMP induction was measured by c-AMPdynamic2 assay, HTRF 62AM4PEC system from CisBio for the human MC1R and human MC4R according to the protocol provided by the vendor. BHK cells expressing the human MC1 or MC4 receptor were generated by stable transfection with expression vectors encoding the cDNA of either MC1R or MC4R.
In details; 25 μl compound—or standard solution were added in the respective wells. Compound was reconstituted in buffer (DMEM w/o phenol red, 10 mM
Hepes, lx Glutamine, 0.1% OV-albumin1, 1 mM IBMX) and serially diluted starting at 2 μM, 10-fold seven times. Dilutions were carried out in the same aforementioned buffer to the desired working concentration ranges (2× higher than the final concentration). 25 μl cell solution was then added and allowed to incubate for 30 min while lightly shaking, at 25° C. […] The provided components for the assay were reconstituted according to the CisBio assay protocol “3.1 supplied reagents and preparation procedure” in MilliQ purification system H2O and diluted 1:20 in lysis buffer. 25 μl cAMP-d2 and 25 μl Cryptate conjugate were added to all wells.
Plates were centrifuged at 1500 rpm for 30 sec and incubated for 1 h, lightly shaking, at 25° C. in a hotel stacker. The plates were read on Mithras LB 940 provided by Berthold Technologies The data were analysed by non-linear regression analysis of binding curves, using the Windows™ program GraphPad™ Prism (GraphPad Software, USA).
The latter is used when no full curve can be obtained in the concentration ranges indicated above.

[1] = BHK cells expressing human MC1R, '>' = highest dose used with no response, read-out: MC1R cAMP EC50
[2] = BHK cells expressing human MC4R, '>' = highest dose used with no response, read-out: MC4R cAMP EC50

T2 sequence (Q01726 whole entry): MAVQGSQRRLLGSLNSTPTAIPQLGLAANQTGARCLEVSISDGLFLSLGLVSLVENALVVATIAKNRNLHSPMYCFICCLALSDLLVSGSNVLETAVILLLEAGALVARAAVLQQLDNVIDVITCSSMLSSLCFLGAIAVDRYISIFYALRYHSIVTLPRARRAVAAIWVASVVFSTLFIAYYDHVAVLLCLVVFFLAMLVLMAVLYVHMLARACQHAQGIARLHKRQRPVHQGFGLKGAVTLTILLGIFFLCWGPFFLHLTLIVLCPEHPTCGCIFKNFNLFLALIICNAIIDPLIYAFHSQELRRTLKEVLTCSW
T1 sequence (P32245 whole entry): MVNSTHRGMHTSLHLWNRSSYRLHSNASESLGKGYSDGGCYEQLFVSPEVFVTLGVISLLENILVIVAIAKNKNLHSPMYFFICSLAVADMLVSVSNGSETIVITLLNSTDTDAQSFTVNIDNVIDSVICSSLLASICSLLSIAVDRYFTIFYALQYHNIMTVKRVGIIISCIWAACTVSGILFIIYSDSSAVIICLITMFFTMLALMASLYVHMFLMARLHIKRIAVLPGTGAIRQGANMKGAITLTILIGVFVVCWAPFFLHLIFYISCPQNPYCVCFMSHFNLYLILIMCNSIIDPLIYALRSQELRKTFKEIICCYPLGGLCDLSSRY

| Structure (SMILES) | EC50 (human MC4R) [nM] | MC1R/MC4R cAMP EC50 ratio (human MC4R) | EC50 (human MC1R) [nM] | EC50 (human MC1R; [1]) [nM] | EC50 (human MC4R; [2]) [nM] |
| --- | --- | --- | --- | --- | --- |
| C[C@@H]1NC(=O)[C@H](C)NC(=O)[C@@H]2CSSC[C@H](NC(=O)[C@H](Cc3c[nH]c4ccccc34)NC(=O)[C@H](C)NC(=O)[C@H](CCCCN(CC(=O)O)CC(=O)O)NC1=O)C(=O)N1CSC[C@H]1C(=O)N[C@@H](Cc1c[nH]cn1)C(=O)N[C@H](Cc1ccccc1)C(=O)N[C@@H](Cc1c[nH]cn1)C(=O)N[C@@H](Cc1c[nH]c3ccccc13)C(=O)N2 [Chem. 104, c[c[Cys-THAZ-His-D-Phe-His-Trp- Cys]-Ala-Ala-Lys(CH2COOH)2-Ala- Trp]] (cyclo(AA[Lys(CH2CO2H)2]AWC[Thz]H[dF]HWC); disulfide 6-12) | 0.6 | 167 | > 100 | – | – |
| C[C@@H]1NC(=O)[C@H](CC(=O)O)NC(=O)[C@H](CCC(=O)O)NC(=O)[C@H](C)NC(=O)[C@@H]2CSSC[C@H](NC(=O)[C@H](Cc3c[nH]c4ccccc34)NC1=O)C(=O)N1CSC[C@H]1C(=O)N[C@@H](Cc1c[nH]cn1)C(=O)N[C@H](Cc1ccccc1)C(=O)N[C@@H](Cc1c[nH]cn1)C(=O)N[C@@H](Cc1c[nH]c3ccccc13)C(=O)N2 [Chem. 108, c[c[Cys-THAZ-His-D-Phe-His-Trp- Cys]-Ala-Glu-Asp-Ala-Trp]] (cyclo(AEDAWC[Thz]H[dF]HWC); disulfide 6-12) | – | >40 | > 100 | – | – |
| C[C@@H]1NC(=O)[C@@H]2CSCSC[C@H](NC(=O)[C@H](Cc3c[nH]c4ccccc34)NC(=O)[C@H](CCCNC(=N)N)NC(=O)[C@@H](Cc3ccccc3)NC(=O)[C@@H]3C[C@@H](O)CN3C1=O)C(=O)N[C@@H](C)C(=O)N1C[C@H](O)C[C@H]1C(=O)N[C@H](Cc1ccccc1)C(=O)N[C@@H](CCCNC(=N)N)C(=O)N[C@@H](Cc1c[nH]c3ccccc13)C(=O)N2 [Chem. 23, c[c[Cys-Ala-Hyp-D-Phe-Arg-Trp- Cys]-Ala-Hyp-D-Phe-Arg-Trp]] (cyclo(A[Hyp][dF]RWCA[Hyp][dF]RWC); linker 6-12 via CH2) | – | >3 | – | > 10 | – |
| C[C@@H]1NC(=O)[C@@H]2CSSC[C@H](NC(=O)[C@H](Cc3c[nH]c4ccccc34)NC(=O)[C@H](CCCNC(N)=O)NC(=O)[C@@H](Cc3ccccc3)NC(=O)[C@H](Cc3c[nH]cn3)NC1=O)C(=O)N[C@@H](C)C(=O)N[C@@H](Cc1c[nH]cn1)C(=O)N[C@H](Cc1ccccc1)C(=O)N[C@@H](CCCNC(N)=O)C(=O)N[C@@H](Cc1c[nH]c3ccccc13)C(=O)N2 [Chem. 19, c[c[Cys-Ala-His-D-Phe-Cit-Trp-Cys]- Ala-His-D-Phe-Cit-Trp]] | – | >8 | – | > 1 | 0.13 |
| C[C@@H]1NC(=O)[C@@H]2CSSC[C@H](NC(=O)[C@H](Cc3c[nH]c4ccccc34)NC(=O)[C@H](CCCNC(=N)N)NC(=O)[C@@H](Cc3ccccc3)NC(=O)[C@@H]3C[C@@H](O)CN3C1=O)C(=O)N[C@@H](C)C(=O)N1C[C@H](O)C[C@H]1C(=O)N[C@H](Cc1ccccc1)C(=O)N[C@@H](CCCNC(=N)N)C(=O)N[C@@H](Cc1c[nH]c3ccccc13)C(=O)N2 [Chem. 14, c[c[Cys-Ala-Hyp-D-Phe-Arg-Trp- Cys]-Ala-Hyp-D-Phe-Arg-Trp]] (cyclo(A[Hyp][dF]RWCA[Hyp][dF]RWC); disulfide 6-12) | – | >3 | – | > 10 | – |
| C[C@@H]1NC(=O)[C@H](CCC(=O)O)NC(=O)[C@H](CC(=O)O)NC(=O)[C@H](C)NC(=O)[C@@H]2CSSC[C@H](NC(=O)[C@H](Cc3c[nH]c4ccccc34)NC1=O)C(=O)N1CSC[C@H]1C(=O)N[C@@H](Cc1c[nH]cn1)C(=O)N[C@H](Cc1ccccc1)C(=O)N[C@@H](Cc1c[nH]cn1)C(=O)N[C@@H](Cc1c[nH]c3ccccc13)C(=O)N2 [Chem. 107, c[c[Cys-THAZ-His-D-Phe-His-Trp- Cys]-Ala-Asp-Glu-Ala-Trp]] (cyclo(ADEAWC[Thz]H[dF]HWC); disulfide 6-12) | 10.6 | >10 | > 100 | – | – |
| O=C1N[C@H]2CSSC[C@H](NC(=O)[C@H](Cc3c[nH]c4ccccc34)NC(=O)[C@H](Cc3c[nH]cn3)NC(=O)[C@@H](Cc3ccccc3)NC(=O)[C@H](Cc3c[nH]cn3)NC(=O)[C@@H]3CSCN3C2=O)C(=O)N2CSC[C@H]2C(=O)N[C@@H](Cc2c[nH]cn2)C(=O)N[C@H](Cc2ccccc2)C(=O)N[C@@H](Cc2c[nH]cn2)C(=O)N[C@H]1Cc1c[nH]c2ccccc12 [Chem. 91, c[c[Cys-THAZ-His-D-Phe-His-Trp- Cys]-THAZ-His-D-Phe-His-Trp]] (cyclo(C[Thz]H[dF]HWC[Thz]H[dF]HW); disulfide 1-7) | – | >14 | > 10 | – | – |
| COc1ccc(C[C@@H]2NC(=O)[C@H](CCCNC(=N)N)NC(=O)[C@@H](Cc3ccccc3)NC(=O)[C@H](Cc3c[nH]cn3)NC(=O)[C@H](C)NC(=O)[C@@H]3CSSC[C@H](NC2=O)C(=O)N[C@@H](C)C(=O)N[C@@H](CCCCN)C(=O)N[C@@H](CCCCN)C(=O)N[C@@H](CCCCN)C(=O)N[C@@H](Cc2c[nH]c4ccccc24)C(=O)N3)cc1OC [Chem. 67, c[c[Cys-Ala-His-D-Phe-Arg-3,4- DiMeo-Phe-Cys]-Ala-Lys-Lys-Lys- Trp]] (cyclo(AH[dF]R[Phe(3,4-(OMe)2)]CAKKKWC); disulfide 6-12) | – | >18 | – | > 55 | – |
| C[C@@H]1NC(=O)[C@@H]2CSSC[C@H](NC(=O)[C@H](Cc3c[nH]c4ccccc34)NC(=O)[C@@H]3C[C@@H](NC(=N)N)CN3C(=O)[C@@H](Cc3ccccc3)NC(=O)[C@H](Cc3c[nH]cn3)NC1=O)C(=O)N[C@@H](C)C(=O)N[C@@H](Cc1c[nH]cn1)C(=O)N[C@H](Cc1ccccc1)C(=O)N1C[C@H](NC(=N)N)C[C@H]1C(=O)N[C@@H](Cc1c[nH]c3ccccc13)C(=O)N2 [Chem. 28, c[c[Cys-Ala-His-D-Phe-4trans- GuaPro-Trp-Cys]-Ala-His-D-Phe- 4trans-GuaPro-Trp]] | – | – | – | > 100 | – |
| C[C@@H]1NC(=O)[C@@H]2CSSC[C@H](NC(=O)[C@H](Cc3c[nH]c4ccccc34)NC(=O)[C@@H]3C[C@H](NC(=N)N)CN3C(=O)[C@@H](Cc3ccccc3)NC(=O)[C@H](Cc3c[nH]cn3)NC1=O)C(=O)N[C@@H](C)C(=O)N[C@@H](Cc1c[nH]cn1)C(=O)N[C@H](Cc1ccccc1)C(=O)N1C[C@@H](NC(=N)N)C[C@H]1C(=O)N[C@@H](Cc1c[nH]c3ccccc13)C(=O)N2 [Chem. 29, c[c[Cys-Ala-His-D-Phe-4cis-GuaPro- Trp-Cys]-Ala-His-D-Phe-4cis-GuaPro- Trp]] | – | – | – | > 100 | – |
| C[C@@H]1NC(=O)[C@H](CCC(=O)O)NC(=O)[C@H](CCC(=O)O)NC(=O)[C@H](C)NC(=O)[C@@H]2CSSC[C@H](NC(=O)[C@H](Cc3c[nH]c4ccccc34)NC1=O)C(=O)N1CSC[C@H]1C(=O)N[C@@H](Cc1c[nH]cn1)C(=O)N[C@H](Cc1ccccc1)C(=O)N[C@@H](Cc1c[nH]cn1)C(=O)N[C@@H](Cc1c[nH]c3ccccc13)C(=O)N2 [Chem. 105, c[c[Cys-THAZ-His-D-Phe-His-Trp- Cys]-Ala-Glu-Glu-Ala-Trp]] (cyclo(AEEAWC[Thz]H[dF]HWC); disulfide 6-12) | – | >15 | > 100 | – | – |
| C[C@@H]1NC(=O)[C@@H]2CSSC[C@H](NC(=O)[C@H](Cc3c[nH]c4ccccc34)NC(=O)[C@H](CCCN)NC(=O)[C@@H](Cc3ccccc3)NC(=O)[C@H](Cc3c[nH]cn3)NC1=O)C(=O)N[C@@H](C)C(=O)N[C@@H](Cc1c[nH]cn1)C(=O)N[C@H](Cc1ccccc1)C(=O)N[C@@H](CCCN)C(=O)N[C@@H](Cc1c[nH]c3ccccc13)C(=O)N2 [Chem. 16, c[c[Cys-Ala-His-D-Phe-Orn-Trp-Cys]- Ala-His-D-Phe-Orn-Trp]] | – | >5 | – | > 1 | 0.21 |
| N=C(N)NCCC[C@@H]1NC(=O)[C@@H](Cc2ccccc2)NC(=O)[C@@H]2C[C@@H](O)CN2C(=O)[C@@H]2CSSC[C@H](NC(=O)[C@H](Cc3c[nH]c4ccccc34)NC1=O)C(=O)N1C[C@H](O)C[C@H]1C(=O)N[C@H](Cc1ccccc1)C(=O)N[C@@H](CCCNC(=N)N)C(=O)N[C@@H](Cc1c[nH]c3ccccc13)C(=O)N2 [Chem. 27, c[c[Cys-Hyp-D-Phe-Arg-Trp-Cys]- Hyp-D-Phe-Arg-Trp]] (cyclo(C[Hyp][dF]RWC[Hyp][dF]RW); disulfide 1-6) | – | 212 | – | 50.9 | 0.24 |
| C[C@@H]1NC(=O)[C@@H]2CSSC[C@H](NC(=O)[C@H](Cc3c[nH]c4ccccc34)NC(=O)[C@H](CCCNC(N)=O)NC(=O)[C@@H](Cc3ccccc3)NC(=O)[C@H](Cc3c[nH]cn3)NC1=O)C(=O)N[C@@H](C)C(=O)N[C@@H](CCC(=O)O)C(=O)N[C@@H](CCC(=O)O)C(=O)N[C@@H](CCC(=O)O)C(=O)N[C@@H](Cc1c[nH]c3ccccc13)C(=O)N2 [Chem. 45, c[c[Cys-Ala-His-D-Phe-Cit-Trp-Cys]- Ala-Glu-Glu-Glu-Trp]] (cyclo(AEEEWCAH[dF][Cit]WC); disulfide 6-12) | – | >2 | – | > 100 | – |
